Data reported in patent US20050256132A1, “Use of ER selective NF-kB inhibitors for the treatment of sepsis” (priority 2003, published 2005).
Values joined by “and” are separate entries in the source; they are usually repeats but may differ in a detail not shown here. Equal entries are not always repeated.

Tests used:
Listeria monocytogenes = experiment: Murine Listeria model, cytokine response analysis; assay type: in vivo, BALB/c mice; conditions: 10^5 cells/animal iv, 24 hours after challenge, vs control
Experimental: Corn oil and Tween-stabilized vehicle was used as the control. All other reagents used in the experiments were purchased commercially from Sigma (St. Louis, Mo.) except for the cytokine assays which were purchased from Biosource (Camarillo, Calif.). The cytokines were measured by enzyme-linked immunoassay according to the manufacturer's instructions. The limits of detection of each assay are as follows: tumor necrosis factor α—3 pg/ml, interleukin-6—3 pg/ml, interferon gamma—1 pg/ml, monocyte chemo attractant protein—9 pg/ml. Endotoxin values were measured using a quantitative turbidometric assay (LAL5000) (Associates of Cape Cod, Woods Hole, Mass.).
The listeria model of systemic infection in mice was performed as previously described (Opal S. M., et al., Shock 15(4):285-290, 2001). Compound 67 was administered orally via an orogastric tube to BALB/c mice in an increasing dose schedule of from 1.5 mg/kg to 50 mg/kg. The BALB/c mice were purchased from Charles River Laboratories (Wilmington, Mass.). […]
For the cytokine response analysis, a standard dose of 10^5 cells/animal was administered intravenously, and cytokine measures were performed 24 hours after the intravenous challenge. […] The LD50 was calculated by the method of Reed and Meuch (Opal S. M., et al., J Infect Dis 187:70-76, 2003.).

ERβ = experiment: Reporter activity in HAECT-1 cells expressing ERβ; assay type: cell-based, human; conditions: FIG. 1C
Experimental: (A) The effect of compound 67 on NF-κB mediated luciferase reporter activity in HAECT-1 cells expressing ERα. […] (C) The effect of compound 67 on the human IL-6 promoter luciferase reporter activity in HAECT-1 cells expressing either ERα (squares) or ERβ (diamonds). (D) The remaining lysate from (A) was used to determine CK activity.
HAECT-1 cells (Chadwick C C, et al., Proc Natl Acad Sciences, 2005, 102(7): 2543-2548) were cultured in EGM (GIBCO, Rockville, Md.) containing 10% FBS, 1% GlutaMAX and 0.1% Antimycotic-Antibiotic in Falcon T-175 culture flasks at 34° C. in 5% CO2 and infected for four hours with Ad5-wt-ER virus. After overnight recovery, the cells were infected for 2 hours with the Ad5-3x(NFκB).Luc or Ad5-IL6.Luc virus. Compound 67 and 2 ng/ml IL-1 were added to the cells for 15-20 h and the cell lysate was assayed for luciferase activity and evaluated for CK expression (Stanbio Laboratories, Texas). The values are reported as mean±SEM with n=4 from at least 3 independent experiments.

ER/NF-κB = ER/NF-κB luciferase reporter in Ad5-wt-ERα infected HAECT-1 cells (Table 1); assay type: cell-based, human; conditions: relative to the maximal inhibition observed with E2
Experimental: T-175 flasks of 100% confluent HAECT-1 cells (immortalized human aortic endothelial cells) were washed with 8 mL of HBSS (HEPES buffered saline solution) and infected for four hours with 6 mL of a 1:10 dilution of Ad5-wt-hERα virus (an adenovirus transfection vector that mediates CMV promoter driven expression of human ERα) in phenol red free Endothelial Cell Basal medium (Clonetics, San Diego Calif., Catalog # CC-3129) containing 0.25% bovine serum albumin (EBM-BSA). After four hours, cells were washed with EBM-BSA and incubated overnight in the same medium. Following overnight incubation, cells were washed with EBM-BSA and infected for 2 hours with 6 mL of a 1:10 dilution of Ad5-3x(NF-κB).Luc virus (Adenovirus luciferase expression vector driven by 3 repeats of the MHC NF-κb site 5′ to the thymidine kinase promoter) in EBM-BSA. […]
ERα infected HAECT-1 cells or control cells were thawed, diluted 42× in warm EBM-BSA, plated into 96-well plates at 0.1 mL/well and incubated for 4 hours at 34° C. […] Luciferase was determined on a Wallac Victor Luminometer (Gaithersburg, Md.) using 10 μL of lysate and mixing with 100 μL of Promega Luciferase Assay reagent. Creatine kinase was determined from the rate of increase in A340 following addition of 100 μL of CK assay reagent (Sigma, cat. No 47-10) to the remainder of the cell lysate. […]

COc1ccccc1[C@H](c1cccc2ccccc12)[C@@](C)(C#N)C(=O)N1CCC(c2cccc(C(F)(F)F)c2)CC1 [Example 67, (S,S)-3-(2-methoxyphenyl)-2-methyl-3-(1-naphthyl)-2-({4-[3-(trifluoromethyl)phenyl]piperidin-1-yl}carbonyl)propanenitrile]
cytokine levels (TNF, IL-6, MCP-1, interferon gamma) in bacteremic animals (Listeria monocytogenes): unchanged | inhibition of NF-κB transcriptional activity in the presence of ERβ (ERβ): little inhibition | ER/NFκB Efficacy (ER/NF-κB): 100% and 86% and 90% and 92%
